This experiment deals with Mycobacterium tuberculosis. Kind of experiment: The compound was tested for its ability to inhibit the growth of Mycobacterium tuberculosis strain H6/99; Resistant. Format: functional, organism-based.

Each structure is given as a SMILES string.

For the compound `NNC(=O)c1ccncc1`, the MIC result is recorded as “Resistant”.
As for `CO[C@H]1/C=C/O[C@@]2(C)Oc3c(C)c(O)c4c(O)c(c(/C=N/N5CCN(C)CC5)c(O)c4c3C2=O)NC(=O)/C(C)=C\C=C\[C@H](C)[C@H](O)[C@@H](C)[C@@H](O)[C@@H](C)[C@H](OC(C)=O)[C@@H]1C`, the MIC entry is recorded as “Resistant”.

Source of the values: ChEMBL document CHEMBL1132871, “Antimycobacterial activity of ionic fullerene derivatives” (Bioorg Med Chem Lett, 2000).
